Common to all, as to format: in vivo
Experiment [1] has as its system corn. Put plainly: Example 2, Procedure II: dichloroacetamide antidotes against Herbicide No. 1. Conditions: Herbicide No. 1, Table 2. As for the experimental part:
(§1) Containers were filled and compacted with a fumigated silt loam top soil to a depth of about 1.3 cm from the top of the container. A first container was designated as an untreated control, a second container was designated as a herbicide control, and a third container was designated as a herbicide + antidote test container. Each of the containers was seeded with a crop species. A measured amount of herbicide dispersed or dissolved in acetone was applied to a measured quantity of soil. To this same quantity of soil treated with herbicide, there was added a measured amount of antidote dispersed or dissolved in acetone. The quantity of soil treated with the herbicide and antidote was thoroughly mixed to incorporate the herbicide and antidote in the soil uniformly. The seed bed in the third container of soil was covered with the soil treated with the herbicide and antidote and the container was leveled. For each test series, the seed beds of the first and second containers were likewise covered by soil layers. the cover layer of the first container was not treated with herbicide or antidote.
(§2) The containers were then placed on a bench in a greenhouse and sub-irrigated as required for the duration of the test. […] Plant response is measured in terms of percent injury. Antidote efficacy is indicated as the difference in plant injury by the herbicide(s) without the antidote and with the antidote.
(§3) This procedure is the same as Procedure I, but modified in the manner that after incorporation of the chemicals (herbicide and antidote) the containers with the covered seedbed were treated with an initial overhead irrigation equivalent to 0.6 cm rainfall, then subsequently sub-irrigated as required on greenhouse benches.
In this example, a plurality of dichloroacetamide antidotes were tested for their safening efficacy against Herbicide No. 1 in corn, using Procedure II. In this test the weed was velvetleaf; barnyardgrass was not present in this test.

Experiment [2] deals with corn. Put plainly: Example 8, Procedure II: Herbicide No. 1 + butachlor (No. 9) with antidotes. As for the experimental part: as §1, §2, §3
In this test, the efficacy of the same five antidotes used in Examples 6 and 7 was investigated in compositions comprising Herbicide No. 1 and as a co-herbicide, butachlor (Herbicide No. 9), active ingredient in MACHETE® herbicide, a leading commercial rice herbicide. The test procedure used in this example was the same as that in Examples 6 and 7.

Experiment [3] has as its system corn. Put plainly: Example 3, Procedure I: antidotes against Herbicide No. 1. Conditions: Herbicide No. 1, Table 3. As for the experimental part: as §1, §2
This example details the results of tests with Antidote Nos. 12, 15 and 16 to safen Herbicide No. 1 over application rates ranging from 4.48 kg/ha down to 0.56 kg/ha, in corn in the presence of barnyardgrass. Procedure I described above was used in these tests.

Experiment [4] concerns velvetleaf (Abutilon theophrasti). Put plainly: Example 10, Procedure II: Herbicide No. 1 + propachlor (No. 5) with antidotes. On the procedure: as §1, §2, §3
(§4) In the series of greenhouse tests described below, for routine screening purposes the herbicide/antidote compositions were tested in crop/weed combinations involving corn as the crop and either or both of the weeds barnyardgrass (Echinochloa crusgalli), a monocotyledonous weed, and velvetleaf (Abutilon theophrasti), a dicotyledonous weed. In the tables below, these weeds are indicated by the symbols "BYG" and "VL", respectively.
(§5) In this test, the safening effect of various antidotes on the herbicidal combination of Herbicide No. 1 and another α-chloroacetanilide co-herbicide, propachlor, (Herbicide No. 5) was investigated. Propachlor is the active ingredient in the commercial herbicide RAMROD®. Procedure II was also used in this test as in the preceding example.

The test system of experiment [5] is barnyardgrass (Echinochloa crusgalli). The description is as above. As for the experimental part:
as §1, §2, §3, §4, §5

In experiment [6] the test system is Giant foxtail (Setaria fabergi). Put plainly: Example 24, Procedure II: Herbicide No. 1 + co-herbicides Nos. 4, 6, 7, 12 with Antidote Nos. 15 and 17-21. The essentials: (§6)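 Greenhouse pots, herbicide No. 1 plus co-herbicides and antidote in acetone incorporated into silt loam soil covering the corn seed bed, with giant foxtail and velvetleaf; initial overhead irrigation equal to 0.6 cm rainfall, then sub-irrigation. Antidote at 2.24 kg/ha; percent injury read 13 days after application, duplicate average.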

For experiment [7], the system named is corn. Described as above. The essentials: as §6
The mark [8] stands for this setting: Herbicide No.1 0.14 kg/ha + Herbicide No.5 4.48 kg/ha, antidote rate 2.24 kg/ha.
Setting [9] is: Herbicide No.1 0.14 kg/ha + Herbicide No.5 4.48 kg/ha, antidote rate 8.96 kg/ha.
Setting [10] is: Herbicide No.1 0.56 kg/ha + Herbicide No.5 4.48 kg/ha, antidote rate 2.24 kg/ha.
Setting [11] is: Herbicide No.1 0.56 kg/ha + Herbicide No.5 4.48 kg/ha, antidote rate 8.96 kg/ha.
[12] abbreviates: Herbicide No.1 0.14 + No.9 2.24 kg/ha + antidote 2.24 kg/ha.
[13] abbreviates: Herbicide No.1 0.14 + No.9 2.24 kg/ha + antidote 8.96 kg/ha.
Where [14] appears, read: Herbicide No.1 0.56 + No.9 2.24 kg/ha + antidote 2.24 kg/ha.
The mark [15] stands for this setting: Herbicide No.1 0.56 + No.9 2.24 kg/ha + antidote 8.96 kg/ha.
The mark [16] stands for this setting: Herb. No. 1 0.07 Kg/ha + Co-Herb. No. 4 1.12 Kg/ha + antidote 2.24 Kg/ha.
Where [17] appears, read: Herb. No. 1 0.07 Kg/ha + Co-Herb. No. 6 0.14 Kg/ha + antidote 2.24 Kg/ha.
The mark [18] stands for this setting: Herb. No. 1 0.07 Kg/ha + Co-Herb. No. 7 0.28 Kg/ha + antidote 2.24 Kg/ha.
Setting [19] is: Herb. No. 1 0.07 Kg/ha + Co-Herb. No. 12 0.28 Kg/ha + antidote 2.24 Kg/ha.
[20] abbreviates: Herb. No. 1 0.14 Kg/ha + Co-Herb. No. 4 1.12 Kg/ha + antidote 2.24 Kg/ha.
Where [21] appears, read: Herb. No. 1 0.14 Kg/ha + Co-Herb. No. 6 0.14 Kg/ha + antidote 2.24 Kg/ha.
Setting [22] is: Herb. No. 1 0.14 Kg/ha + Co-Herb. No. 7 0.28 Kg/ha + antidote 2.24 Kg/ha.
Setting [23] is: Herb. No. 1 0.14 Kg/ha + Co-Herb. No. 12 0.28 Kg/ha + antidote 2.24 Kg/ha.
Where [24] appears, read: Herb. No. 1 0.28 Kg/ha + Co-Herb. No. 4 1.12 Kg/ha + antidote 2.24 Kg/ha.
Setting [25] is: Herb. No. 1 0.28 Kg/ha + Co-Herb. No. 6 0.14 Kg/ha + antidote 2.24 Kg/ha.
[26] abbreviates: Herb. No. 1 0.28 Kg/ha + Co-Herb. No. 7 0.28 Kg/ha + antidote 2.24 Kg/ha.
[27] abbreviates: Herb. No. 1 0.28 Kg/ha + Co-Herb. No. 12 0.28 Kg/ha + antidote 2.24 Kg/ha.
Where [28] appears, read: Herb. No. 1 0.56 Kg/ha + Co-Herb. No. 4 1.12 Kg/ha + antidote 2.24 Kg/ha.
The mark [29] stands for this setting: Herb. No. 1 0.56 Kg/ha + Co-Herb. No. 6 0.14 Kg/ha + antidote 2.24 Kg/ha.
[30] abbreviates: Herb. No. 1 0.56 Kg/ha + Co-Herb. No. 7 0.28 Kg/ha + antidote 2.24 Kg/ha.
[31] abbreviates: Herb. No. 1 0.56 Kg/ha + Co-Herb. No. 12 0.28 Kg/ha + antidote 2.24 Kg/ha.

The structures appear in SMILES notation.

For the compound `CC1(C)OC(c2ccco2)CN1C(=O)C(Cl)Cl` (centres unmarked) [Antidote No. 15, Oxazolidine, 3-(dichloroacetyl)-5-(2-furanyl)-2,2-dimethyl], the “safening of corn, assessment in words” value was “most safening and commercial-level protection for corn, at all ratios tested” in the experiment on corn [1]; “best safening effect across all four treatments” in the experiment on corn [2] (Herbicide Nos. 1 and 9, Table 8); “excellent protection for corn” with corn [3].

As to `C=CCN(CC=C)C(=O)C(Cl)Cl` [compound 1], the “% Injury VL” value was determined as 75% in experiment [4] (setting [8]), 70% in experiment [4] (setting [9]), 70% in experiment [4] (setting [10]) and 80% in experiment [4] (setting [11]). The “% Injury BYG” value stood at 99% in experiment [5] (setting [8]), 99% in experiment [5] (setting [9]), 98% in experiment [5] (setting [10]) and 99% in experiment [5] (setting [11]). Moreover, the “% Injury Corn” value in the experiment with corn [2] (setting [12]) is on record as 20%; with corn [2] (setting [13]), 10%; in the experiment on corn [2] (setting [14]), 20%; with corn [2] (setting [15]) it was 15%.

Take `O=C1OC(=O)c2cccc3cccc1c23` [compound 2]: the “% Injury VL” value in experiment [4] (setting [8]) was 60%; in experiment [4] (setting [9]), 80%; in experiment [4] (setting [10]), 75%; in experiment [4] (setting [11]) it was 80%. The “% Injury BYG” value in experiment [5] (setting [8]) is on record as 100%; in experiment [5] (setting [9]), 99%; in experiment [5] (setting [10]), 99%; in experiment [5] (setting [11]) it was 99%. Moreover, the “% Injury Corn” value in the experiment on corn [2] (setting [12]) came to 15%; in the experiment on corn [2] (setting [13]), 15%; in the experiment on corn [2] (setting [14]), 25%; in the experiment on corn [2] (setting [15]) it was 20%.

On to `O=C(C(Cl)Cl)N1CCOC12CCCCC2` [compound 7], for which the “% Injury VL” value in experiment [4] (setting [8]) is given as 70%; in experiment [4] (setting [9]) it was 75%; in experiment [4] (setting [10]), 95%; in experiment [4] (setting [11]) it was 80%. For the same compound, the “% Injury BYG” value in experiment [5] (setting [8]) came out at 99%; in experiment [5] (setting [9]), 98%; in experiment [5] (setting [10]) it was 98%; in experiment [5] (setting [11]), 96%. In addition, the “% Injury Corn” value is recorded as 5% in the experiment on corn [2] (setting [12]), 10% in the experiment on corn [2] (setting [13]), 25% with corn [2] (setting [14]) and 20% in the experiment with corn [2] (setting [15]).

With `CC1(C(Cl)Cl)OCCO1` [compound 13], the “% Injury VL” value in experiment [4] (setting [8]) is reported as 70%; in experiment [4] (setting [9]), 70%; in experiment [4] (setting [10]) it was 80%; in experiment [4] (setting [11]), 75%. Besides, the “% Injury BYG” value was 98% in experiment [5] (setting [8]), 97% in experiment [5] (setting [9]), 99% in experiment [5] (setting [10]) and 98% in experiment [5] (setting [11]). Also, the “% Injury Corn” value was 25% in the experiment on corn [2] (setting [12]), 10% in the experiment on corn [2] (setting [13]), 45% with corn [2] (setting [14]) and 30% in the experiment on corn [2] (setting [15]).

As to `CCSC(=O)COC(c1ccccc1)c1ccccc1` [compound 21], the “% Inhibition GFT” value was 65% in experiment [6] (setting [16]); 100% in experiment [6] (setting [17]); 100% in experiment [6] (setting [18]); 100% in experiment [6] (setting [19]); 60% in experiment [6] (setting [20]); 100% in experiment [6] (setting [21]). Also, the “% Inhibition GFT” value in experiment [6] (setting [22]) is 100%; in experiment [6] (setting [23]), 99%; in experiment [6] (setting [24]), 65%; in experiment [6] (setting [25]), 99%; in experiment [6] (setting [26]) it was 98%; in experiment [6] (setting [27]), 100%. Further, the “% Inhibition GFT” value in experiment [6] (setting [28]) stood at 70%; in experiment [6] (setting [29]), 100%; in experiment [6] (setting [30]) it was 100%; in experiment [6] (setting [31]), 99%. The “% Inhibition Corn” value in the experiment with corn [7] (setting [16]) is reported as 5%; in the experiment with corn [7] (setting [17]), 0%; with corn [7] (setting [18]) it was 0%; in the experiment with corn [7] (setting [19]), 0%; in the experiment on corn [7] (setting [20]) it was 5%; in the experiment on corn [7] (setting [21]), 5%. In addition, the “% Inhibition Corn” value with corn [7] (setting [22]) is recorded as 0%; with corn [7] (setting [23]), 5%; with corn [7] (setting [24]), 0%; in the experiment on corn [7] (setting [25]) it was 5%; with corn [7] (setting [26]), 5%; with corn [7] (setting [27]), 10%. The “% Inhibition Corn” value in the experiment on corn [7] (setting [28]) was 5%; with corn [7] (setting [29]), 10%; in the experiment on corn [7] (setting [30]) it was 15%; in the experiment with corn [7] (setting [31]), 20%.
